Data published in PubChem BioAssay AID1918936 (Molecular Pharmacology Branch, DTP, NCI, 2023).
pIC50: −log10 of the molar value. Values joined by “and” are separate entries in the source; they are usually repeats but may differ in a detail not shown here. Equal values may be shown once. Blank lines part the entries; values can stand above or below the molecule they belong to.

System: 349418-098-R-PDC complex spheroid viability
Experiment: Anticancer human tumor 349418-098-R-PDC patient-derived lung adenocarcinoma cell line growth inhibition
Conditions: for viability, T/C: stronger effect = lower value
In short: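 Drug combinations with the LSD1 inhibitor iadademstat tested on tumor cells co-cultured as spheroids with endothelial cells and mesenchymal stem cells. Concentrations descended in half-log increments from clinical Cmax or 10 microM.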

[1] = curve of first compound, second compound 0.1 µM
[2] = curve of first compound, second compound 0.316 µM
[3] = curve of first compound, second compound 1 µM
[4] = curve of first compound, second compound 3.16 µM
[5] = curve of first compound, second compound 10 µM
[6] = second compound 0.1 µM, first compound 0.00316 µM
[7] = second compound 0.1 µM, first compound 0.01 µM
[8] = second compound 0.1 µM, first compound 0.0316 µM
[9] = second compound 0.1 µM, first compound 0.1 µM
[10] = second compound 0.1 µM, first compound 0.316 µM
[11] = second compound 0.1 µM, first compound 1 µM
[12] = second compound 0.316 µM, first compound 0.00316 µM
[13] = second compound 0.316 µM, first compound 0.01 µM
[14] = second compound 0.316 µM, first compound 0.0316 µM
[15] = second compound 0.316 µM, first compound 0.1 µM
[16] = second compound 0.316 µM, first compound 0.316 µM
[17] = second compound 0.316 µM, first compound 1 µM
[18] = second compound 1 µM, first compound 0.00316 µM
[19] = second compound 1 µM, first compound 0.01 µM
[20] = second compound 1 µM, first compound 0.0316 µM
[21] = second compound 1 µM, first compound 0.1 µM
[22] = second compound 1 µM, first compound 0.316 µM
[23] = second compound 1 µM, first compound 1 µM
[24] = second compound 3.16 µM, first compound 0.00316 µM
[25] = second compound 3.16 µM, first compound 0.01 µM
[26] = second compound 3.16 µM, first compound 0.0316 µM
[27] = second compound 3.16 µM, first compound 0.1 µM
[28] = second compound 3.16 µM, first compound 0.316 µM
[29] = second compound 3.16 µM, first compound 1 µM
[30] = second compound 10 µM, first compound 0.00316 µM
[31] = second compound 10 µM, first compound 0.01 µM
[32] = second compound 10 µM, first compound 0.0316 µM
[33] = second compound 10 µM, first compound 0.1 µM
[34] = second compound 10 µM, first compound 0.316 µM
[35] = second compound 10 µM, first compound 1 µM
[36] = second compound 0.1 µM, first compound 0.00949 µM
[37] = second compound 0.1 µM, first compound 0.03 µM
[38] = second compound 0.1 µM, first compound 0.0949 µM
[39] = second compound 0.1 µM, first compound 0.3 µM
[40] = second compound 0.1 µM, first compound 0.949 µM
[41] = second compound 0.1 µM, first compound 3 µM
[42] = second compound 0.316 µM, first compound 0.00949 µM
[43] = second compound 0.316 µM, first compound 0.03 µM
[44] = second compound 0.316 µM, first compound 0.0949 µM
[45] = second compound 0.316 µM, first compound 0.3 µM
[46] = second compound 0.316 µM, first compound 0.949 µM
[47] = second compound 0.316 µM, first compound 3 µM
[48] = second compound 1 µM, first compound 0.00949 µM
[49] = second compound 1 µM, first compound 0.03 µM
[50] = second compound 1 µM, first compound 0.0949 µM
[51] = second compound 1 µM, first compound 0.3 µM
[52] = second compound 1 µM, first compound 0.949 µM
[53] = second compound 1 µM, first compound 3 µM
[54] = second compound 3.16 µM, first compound 0.00949 µM
[55] = second compound 3.16 µM, first compound 0.03 µM
[56] = second compound 3.16 µM, first compound 0.0949 µM
[57] = second compound 3.16 µM, first compound 0.3 µM
[58] = second compound 3.16 µM, first compound 0.949 µM
[59] = second compound 3.16 µM, first compound 3 µM
[60] = second compound 10 µM, first compound 0.00949 µM
[61] = second compound 10 µM, first compound 0.03 µM
[62] = second compound 10 µM, first compound 0.0949 µM
[63] = second compound 10 µM, first compound 0.3 µM
[64] = second compound 10 µM, first compound 0.949 µM
[65] = second compound 10 µM, first compound 3 µM
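Further: spheroids exposed to agents for seven days before readout.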
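Wherever viability, T/C is given: 100% = DMSO vehicle control wells.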

SMILES: COc1cc(Nc2ncc3c(n2)-c2ccc(Cl)cc2C(c2c(F)cccc2OC)=NC3)ccc1C(=O)O + NC1CCC(NC2CC2c2ccccc2)CC1
pIC50 [1]: 7.67
pIC50 [2]: 7.74
pIC50 [3]: 7.55
pIC50 [4]: 7.80
pIC50 [5]: 7.67
viability, T/C [6]: 99.2%
viability, T/C [7]: 64.7%
viability, T/C [8]: 41.8%
viability, T/C [9]: 38.5%
viability, T/C [10]: 32.1%
viability, T/C [11]: 37.4%
viability, T/C [12]: 87.3%
viability, T/C [13]: 63.1%
viability, T/C [14]: 37.7%
viability, T/C [15]: 38.9%
viability, T/C [16]: 39.7%
viability, T/C [17]: 32.5%
viability, T/C [18]: 85%
viability, T/C [19]: 62.8%
viability, T/C [20]: 43.6%
viability, T/C [21]: 47.3%
viability, T/C [22]: 40.9%
viability, T/C [23]: 34.5%
viability, T/C [24]: 99.5%
viability, T/C [25]: 58.9%
viability, T/C [26]: 35.6%
viability, T/C [27]: 40.4%
viability, T/C [28]: 31.9%
viability, T/C [29]: 37.7%
viability, T/C [30]: 75.3%
viability, T/C [31]: 54.2%
viability, T/C [32]: 48.2%
viability, T/C [33]: 41.6%
viability, T/C [34]: 34%
viability, T/C [35]: 34.7%

pIC50 (curve of compound): 5.45 and 5.17
SMILES: O=C(c1cc(Cc2n[nH]c(=O)c3ccccc23)ccc1F)N1CCN(C(=O)C2CC2)CC1
viability, T/C (compound 0.0316 µM): 94.6% and 101%
viability, T/C (compound 0.1 µM): 97.8% and 94.5%
viability, T/C (compound 0.316 µM): 78.8% and 90.7%
viability, T/C (compound 1 µM): 65.8% and 85.2%
viability, T/C (compound 3.16 µM): 53.2% and 64%
viability, T/C (compound 10 µM): 38.9% and 42.3%

SMILES: COc1cc(Nc2ncc3c(n2)-c2ccc(Cl)cc2C(c2c(F)cccc2OC)=NC3)ccc1C(=O)O + NC1CC1c1ccc(-c2cccc(O)c2)cc1
pIC50 [1]: 7.59
pIC50 [2]: 7.16
pIC50 [3]: 7.27
pIC50 [4]: 7.24
pIC50 [5]: 7.37
viability, T/C [6]: 75.4%
viability, T/C [7]: 53.7%
viability, T/C [8]: 50.2%
viability, T/C [9]: 48.7%
viability, T/C [10]: 47.5%
viability, T/C [11]: 38.7%
viability, T/C [12]: 74%
viability, T/C [13]: 54.4%
viability, T/C [14]: 55.4%
viability, T/C [15]: 51%
viability, T/C [16]: 45.8%
viability, T/C [17]: 38.2%
viability, T/C [18]: 79.1%
viability, T/C [19]: 54.5%
viability, T/C [20]: 51.8%
viability, T/C [21]: 55.4%
viability, T/C [22]: 50.4%
viability, T/C [23]: 35.2%
viability, T/C [24]: 73.2%
viability, T/C [25]: 47.5%
viability, T/C [26]: 59.6%
viability, T/C [27]: 47.5%
viability, T/C [28]: 43.7%
viability, T/C [29]: 31.1%
viability, T/C [30]: 62.1%
viability, T/C [31]: 44.7%
viability, T/C [32]: 55.1%
viability, T/C [33]: 49.1%
viability, T/C [34]: 34.4%
viability, T/C [35]: 25.4%

SMILES: O=C(C=Cc1cccc(S(=O)(=O)Nc2ccccc2)c1)NO + NC1CC1c1ccc(-c2cccc(O)c2)cc1
pIC50 [1]: 7.26
pIC50 [2]: 7.26
pIC50 [3]: 7.27
pIC50 [4]: 7.23
pIC50 [5]: 7.44
viability, T/C [36]: 76%
viability, T/C [37]: 70%
viability, T/C [38]: 20.3%
viability, T/C [39]: 3.17%
viability, T/C [40]: 0.96%
viability, T/C [41]: 103%
viability, T/C [42]: 76.8%
viability, T/C [43]: 70.2%
viability, T/C [44]: 19.2%
viability, T/C [45]: 3.03%
viability, T/C [46]: 0.63%
viability, T/C [47]: 103%
viability, T/C [48]: 83.1%
viability, T/C [49]: 68.7%
viability, T/C [50]: 20.3%
viability, T/C [51]: 3.41%
viability, T/C [52]: 0.58%
viability, T/C [53]: 103%
viability, T/C [54]: 77.7%
viability, T/C [55]: 78.5%
viability, T/C [56]: 22.2%
viability, T/C [57]: 3.57%
viability, T/C [58]: 0.78%
viability, T/C [59]: 96.6%
viability, T/C [60]: 81.5%
viability, T/C [61]: 56.3%
viability, T/C [62]: 14.6%
viability, T/C [63]: 3.03%
viability, T/C [64]: 0.44%
viability, T/C [65]: 58.3%

SMILES: CC(C)c1c(-c2ccccc2)nc2c(C#N)c[nH]n2c1=O + NC1CC1c1ccc(-c2cccc(O)c2)cc1
pIC50 [1]: < 5.00
pIC50 [2]: < 5.00
pIC50 [3]: < 5.00
pIC50 [4]: < 5.00
pIC50 [5]: < 5.00
viability, T/C [8]: 126%
viability, T/C [9]: 122%
viability, T/C [10]: 119%
viability, T/C [11]: 106%
viability, T/C (second compound 0.1 µM, first compound 3.16 µM): 111%
viability, T/C (second compound 0.1 µM, first compound 10 µM): 80.7%
viability, T/C [14]: 95.6%
viability, T/C [15]: 113%
viability, T/C [16]: 118%
viability, T/C [17]: 106%
viability, T/C (second compound 0.316 µM, first compound 3.16 µM): 98.7%
viability, T/C (second compound 0.316 µM, first compound 10 µM): 81.8%
viability, T/C [20]: 114%
viability, T/C [21]: 103%
viability, T/C [22]: 120%
viability, T/C [23]: 99.2%
viability, T/C (second compound 1 µM, first compound 3.16 µM): 95.7%
viability, T/C (second compound 1 µM, first compound 10 µM): 102%
viability, T/C [26]: 104%
viability, T/C [27]: 106%
viability, T/C [28]: 111%
viability, T/C [29]: 100%
viability, T/C (second compound 3.16 µM, first compound 3.16 µM): 104%
viability, T/C (second compound 3.16 µM, first compound 10 µM): 91.2%
viability, T/C [32]: 86.1%
viability, T/C [33]: 82.4%
viability, T/C [34]: 86.7%
viability, T/C [35]: 75.3%
viability, T/C (second compound 10 µM, first compound 3.16 µM): 62.5%
viability, T/C (second compound 10 µM, first compound 10 µM): 64.8%

pIC50 (curve of compound): 7.80 and 7.81
SMILES: Nc1ncn(C2CC(O)C(CO)S2)c(=O)n1 (centres undefined)
viability, T/C (compound 0.000949 µM): 104% and 92.4%
viability, T/C (compound 0.003 µM): 84% and 91.7%
viability, T/C (compound 0.00949 µM): 64.8% and 63.6%
viability, T/C (compound 0.03 µM): 33.8% and 29.8%
viability, T/C (compound 0.0949 µM): 16.8% and 11.8%
viability, T/C (compound 0.3 µM): 8.91% and 5.28%

SMILES: CCN(c1cc(-c2ccc(CN3CCOCC3)cc2)cc(C(=O)NCc2c(C)cc(C)[nH]c2=O)c1C)C1CCOCC1 + NC1CC1c1ccc(-c2cccc(O)c2)cc1
pIC50 [1]: 6.22
pIC50 [2]: 6.19
pIC50 [3]: 6.11
pIC50 [4]: 6.12
pIC50 [5]: 6.30
viability, T/C [36]: 116%
viability, T/C [37]: 107%
viability, T/C [38]: 109%
viability, T/C [39]: 74%
viability, T/C [40]: 34.4%
viability, T/C [41]: 11.4%
viability, T/C [42]: 120%
viability, T/C [43]: 121%
viability, T/C [44]: 113%
viability, T/C [45]: 77%
viability, T/C [46]: 37.5%
viability, T/C [47]: 11.9%
viability, T/C [48]: 123%
viability, T/C [49]: 124%
viability, T/C [50]: 120%
viability, T/C [51]: 89.2%
viability, T/C [52]: 42%
viability, T/C [53]: 14%
viability, T/C [54]: 126%
viability, T/C [55]: 121%
viability, T/C [56]: 122%
viability, T/C [57]: 89.1%
viability, T/C [58]: 41.1%
viability, T/C [59]: 14.3%
viability, T/C [60]: 107%
viability, T/C [61]: 102%
viability, T/C [62]: 107%
viability, T/C [63]: 70.8%
viability, T/C [64]: 23.8%
viability, T/C [65]: 11.2%
